A melting point compilation (Tetko et al.; mined from patent text by program, amines drawn as free bases though some values may be those of a salt)

| melting point [°C] | Structure (SMILES) |
| --- | --- |
| 95 to 96 | CC(C)CN1C(=O)c2cnc(-c3ccccc3)nc2N(C(=O)CCl)c2ccccc21 |
| 194 to 196 | CC(C)Cc1c2c(nn1Cc1ccccc1)c(N)nc1ccccc12 |
| 84 to 85 | CCCCNC(=O)Nc1ccccc1C(=O)OC |
| 159 to 160 | O=C(NN=Cc1ccncc1)OC(c1ccccc1)c1ccccc1 |
| 87 to 90 | CCCCCN(CCCCC)C(=O)C(Cc1ccc(OCC(=O)O)c(C(=O)O)c1)NC(=O)C(Cc1ccccc1)NC(=O)OC(C)(C)C (stereo not drawn) |
| 94 | COc1ccc2ccc(OC)c(C=O)c2c1 |
| 162 to 164 | COC(=O)CCc1c[nH]c2ccccc12 |
| 120 to 125 | O=C(C#Cc1ccc(C(F)(F)F)cc1Cl)Nc1ccc(OCCn2cccn2)cc1 |
| 180 | O=[N+]([O-])c1ccc(Oc2c(Cl)cc(S(=O)(=O)NC(=NO)Nc3ccc(Cl)cc3)cc2Cl)c(Cl)c1 |
| 189 to 190 | CCOc1cc(-c2nnc3c4ccccc4c(OCc4cn(C)cn4)nn23)no1 |
| 141 to 144 | COc1ccc(-n2nc(Sc3ccc(C(C)C)cc3)c(C)c(C#N)c2=O)cc1 |
| 169 to 170 | Cc1nc(-c2cc3cccc(OC[C@@H](O)CN4CCC(c5ccc6ccccc6c5)CC4)c3o2)no1 |
| 69 to 78 | CC(Cc1c[nH]c2ccccc12)(NC(=O)OC1CCCCC1Cl)C(=O)NCCc1ccccc1 (stereo not drawn) |
| 147 to 149 | O=c1cc(NCCN2CCN(c3ccccc3)CC2)cn[nH]1 |
| 119 to 120 | CC(C)(C)C(F)(F)c1ccc(C[C@@H](NC(=O)c2cccc3c2C=CCCC3)[C@@H](O)c2cccc(Cl)c2)cc1 (racemic) |
| 193 | CCOC(=O)c1cc2nc(C)n(Cc3ccccc3)c2[nH]1 |
| 162 to 163 | Cc1cccc2nc(C(C)(C)NC(=O)COC3c4ccccc4-c4ccccc43)oc(=O)c12 |
| 132 to 134 | CCCNC(=O)C(C)(C)Oc1ccc(-c2ccc(N3CCCCC3)cc2)cc1 |
| 159 to 160 | Cc1ncncc1C(=O)Nc1ccc(-n2nc(C(F)(F)F)cc2C2CC2)nc1 |
| 124 to 128 | COCNC(=O)NC1CCCc2ccccc21 (stereo not drawn) |
| 167 to 169 | CCOC(=O)COc1cc(OC)cc2c1c1c(n2Cc2ccccc2)CCCC1C(N)=O (stereo not drawn) |
| 140 to 143 | COc1cc(Nc2nccc(-c3cccc(NC(=O)c4cccnc4)c3)n2)cc(OC)c1OC |
| 195 to 200 | O=C(c1ccccc1)c1c(O)c(=O)ccn1CCO |
| 158 to 160 | COc1ccc(C(C)(C)C)cc1NC(=S)Nc1cccc2ccccc12 |
| 178 to 181 | COC(=O)c1cc2cc(-c3ccc4ccc(Cl)cc4n3)ccc2o1 |

| melting point [°C] | Structure (SMILES) |
| --- | --- |
| 105 to 107 | O=C(O)c1ccc(S(=O)(=O)Oc2ccc(-c3ccc(-c4c(C(=O)c5ccccc5)oc5ccccc45)cc3)cc2[N+](=O)[O-])cc1O |
| 191 to 192 | CSc1ccccc1C1CCN(CCCCNC(=O)c2ccc(-c3ccc(C(F)(F)F)cc3)cc2)CC1 |
| 142 to 143 | O=C(C(=Cc1ccc(F)cc1)S(=O)(=O)c1ccccc1)c1ccccc1 |
| 93 to 94 | Cc1oc(-c2ccccc2)nc1CCOc1ccc(CC(Br)C#N)cn1 (stereo not drawn) |
| 262 | CC(C)(C)OC(=O)n1ccc(-c2ccc(F)cc2)c1-c1ccc(S(C)(=O)=O)cc1 |
| 133 | COc1ccc2c(c1)C(c1ccccc1)NC(=O)N2CC1CC1 (stereo not drawn) |
| 174 to 175 | CCCCc1nc2c(N)nc3ccccc3c2n1CCCCNC(=O)c1ccccc1 |
| 271 to 274 | Nc1cc2c(Nc3ccc(Cl)c(Br)c3)ncnc2cn1 |
| 118 to 119 | CCOC(=O)Cc1c(SC)c2cc(F)ccc2n1Cc1ccc(Cl)cc1 |
| 200 to 201 | CC(=O)Nc1cnc(-c2ccccc2)nc1NCC(=O)N(C)c1ccccc1 |
| 202 to 204 | O=c1[nH]ncc2[nH]c(-c3ccc(OC(F)F)c(OC4CC4)c3)c(Cc3ccccc3F)c12 |
| 191 | CN1C(=O)NC(Cc2c[nH]c3ccccc23)C1CCc1cc(C(F)(F)F)cc(C(F)(F)F)c1 (stereo not drawn) |
| 223 to 225 | CCN1CCNC(=O)c2ccc(Nc3ncc(Cl)c(Nc4ccccc4OCCN4CCOCC4)n3)cc21 |
| 161 to 164 | Cc1ncsc1C(=O)Nc1ccc(-n2nc(C(F)(F)F)c(Cl)c2C2CC2)cc1 |
| 215 to 216 | CCNC(=O)N1CCC(c2[nH]nc3c2C(=O)c2c(NC(=O)NN4CCOCC4)cccc2-3)CC1 |
| 185 to 187 | Cn1c(NC(=O)c2ccccc2)nc2ccccc2c1=O |
| 94 to 96 | CCc1cnc(CC(C#Cc2ccccc2)c2ccc(OC)c(OC3CCCC3)c2)o1 (racemic) |
| 156 to 158 | O=C(Oc1ccccc1)c1ccc(C(=O)Oc2ccccc2)c(C(=O)Oc2ccccc2)c1 |
| 221 to 223 | COc1ccc(NC(=O)C(=O)c2c3n(c4ccccc24)CCNCC3)cc1Cl |
| 160 to 161 | CCOC(=O)C1CCN(c2ncc(NS(=O)(=O)c3ccccc3Br)c(NCc3ccc4c(c3)OCO4)n2)CC1 |
| 50 to 50.5 | O=[N+]([O-])c1cc(OCc2ccccc2)ccc1Cl |
| 189 | CC(C)C(=O)NCc1cccc(-c2nc(=O)c3ccccc3s2)n1 |
| 150 | CCOC(=O)C(=O)Nc1cccc(NC(=O)C(=O)OCC)c1 |
| 122 to 125 | CNCCc1cccc(N2C(=O)N(c3c(Cl)cccc3Cl)Cc3cnc(Nc4ccccc4)nc32)c1 |

Second part, the compound before the results:

| Structure (SMILES) | melting point [°C] |
| --- | --- |
| CCOC(=O)c1ccc(C(=O)O)s1 | > 300 |
| Cc1cn(C(C)C(=O)N(C)C)nc1-c1cccc(Cl)c1 (stereo not drawn) | 73 to 75 |
| CC(=O)O[C@H]1[C@H](OC(C)=O)CSC(Oc2ccc3c(ccn3C(=O)OC(C)(C)C)c2)[C@@H]1OC(C)=O (stereo partly drawn) | 58 to 62 |
| CCCCP(=O)(O)CC(C)(O)CN (stereo not drawn) | 187 to 189 |
| CCOC(=O)Cc1nc(-c2ccc(Cl)cc2)oc1C | 69 to 70 |
| Cc1nc(-c2ncn3c2[C@@H]2CCCN2C(=O)c2c(Cl)cccc2-3)no1 | 205 to 206 |
| O=C(C(=O)c1ccc(C(F)(F)F)cc1)c1ccc(C(F)(F)F)cc1 | 141 to 142 |
| CN(C)C=C(C=C(C#N)C(=O)OC(C)(C)C)c1cccnc1 | 161 to 163 |
| CCOC(=O)C1=C(NC(=O)Nc2cc(C(=O)OC(C)C)c(F)cc2Br)CCC1 | 166 to 168 |
| CC(C)(C)c1ccc2c(c1)C=C(C(=O)O)CC2 | 185 to 186 |
| CC(C)(C)CC(C)(C)c1ccc(Oc2cc3nc(C(C)(C)C)oc3cc2[N+](=O)[O-])cc1 | 77 to 78 |
| CCCCCN1C(=O)C(=O)c2ccccc21 | 50 to 51 |
| C[C@@H]1N[C@H](c2ccccc2)COC1=O | 82 to 83 |
| COc1ccc(C=C2C=CC(=O)O2)cc1 | 118 to 120 |
| COc1ccc(C(NCCNC(c2ccccc2)c2ccc(OC)cc2)c2ccccc2)cc1 (stereo not drawn) | 97 to 98 |
| Clc1ccc(C#Cc2ccccc2)cn1 | 70 to 72 |
| O=C1c2ccccc2C(=O)N1CCSCc1nccc(NC(=S)NCC(F)(F)F)n1 | 178 to 179 |
| CC(Cl)(Cl)C(NC(=O)c1ccc(C(F)(F)F)cc1)NC(=NC#N)Nc1ccc(Cl)nc1 (stereo not drawn) | 210 to 211 |
| CC(=O)c1cnc(N)c(Cl)c1 | 188 |
| CCC1CC2=CC(=O)CCC2C2CCC3(C)C(O)CCC3C12 (stereo not drawn) | 142 to 144 |
| CN(C)C(=O)c1cnn2ccccc12 | 86 to 87 |
| NC(=O)c1cc(OCCNCC(O)COc2ccc(-c3nc(C(F)(F)F)c[nH]3)cc2)ccc1O (stereo not drawn) | 155 to 158 |
| COCc1ccc2c(c1S(=O)(=O)NC(=O)Nc1nc(C)cc(OC)n1)S(=O)(=O)C(C)C2 (stereo not drawn) | 215 to 216 |
| O=C(O)C(Cl)(Cl)Cc1ccccc1 | 173 to 176 |
| C=CC[C@@H]1[C@H](O)[C@@H](O)C(=O)N1Cc1ccccc1 (relative stereo) | 90 to 93 |

| Structure (SMILES) | melting point [°C] |
| --- | --- |
| CCCCCCCCCCCC(=O)NC(=O)OCc1nc(C(C)C)c(Sc2cc(Cl)cc(Cl)c2)n1CC | 100 to 102 |
| O=c1c2cc(Cl)ccc2nc(C(S)c2ncnc3[nH]cnc23)n1-c1ccccc1Cl (stereo not drawn) | 237 to 238 |
| OC(CC1CCN(CC2CC2)CC1)(c1ccc(F)cc1)c1ccc(F)cc1 | 119 to 121 |
| CC(C)N(CCCC(=NNC(N)=S)c1ccccc1)C(=O)C1CCCCC1 | 112 to 114 |
| CCC(=O)N(CC)c1cccc(C(=O)C=CN(C)C)c1 | 105 to 107 |
| O=c1[nH]nc(-c2ccccc2O)o1 | 198 to 200 |
| O=C(O)Cn1cc(Cc2nc3c(F)c(F)cc(F)c3s2)c2cccc(Br)c21 | 228 to 230 |
| O=S(=O)(/C=C/c1ccccc1)c1ncc(Cl)cn1 | 150 |
| CC(=O)NC[C@@H]1C[C@H]1c1cccc2nn(C)c(F)c12 (relative stereo) | 109 to 111 |
| N#CC=Cc1ccc(C=Cc2ccc(C=CC#N)cc2)cc1 | 219 to 221 |
| CC(NC(=O)/C=C\C(=O)O)C(O)c1ccccc1 (stereo not drawn) | 154 to 156 |
| O=C1C2CCCCC2C(=O)N1c1ccc(Cl)cc1F (stereo not drawn) | 94 to 95.5 |
| Cc1cc(C)cc(S(=O)c2c(C(C)C)nc(C)n2C)c1 (stereo not drawn) | 100 to 101 |
| COC(=O)[C@H](C)N(C(=O)[C@H](CC(C)C)NC(=O)OC(C)(C)C)c1ccc(F)cc1 | 121 to 122 |
| CC1=C(C(O)(c2ccc(C)cc2)C2SCSCS2)CN(C)O1 (stereo not drawn) | 150 to 152 |
| CCc1cc(-c2ccc(F)cc2)c(O)cc1OCCCCCC(c1ccc(OCC(=O)O)cc1)c1nnn[nH]1 (stereo not drawn) | 102 to 104 |
| CCCN(CC(=O)Nc1cnc(C)nc1N(CC)CC)c1ccccc1 | 96.6 to 98.1 |
| O=C(Nc1nccs1)C(CC1CCCC1)c1ccc(Br)cc1 (stereo not drawn) | 201 to 202 |
| N#CCc1c[nH]c2ccc(N)cc12 | 125 to 130 |
| COC(=O)Cc1c(Cl)ncnc1N(C)C | 30 to 32 |
| N#Cc1ccc(OCCCCCCOc2cccc(-c3cc4cc(C#N)ccc4o3)c2)cc1 | 134 to 136 |
| Fc1cccc(-c2ncc(-c3cnc(-c4cccnc4)[nH]3)cn2)c1 | 309 |
| C[C@@H](O)COc1c(N)ccc(F)c1F | 47 to 48 |
| COc1ccc(N2CNC(=O)C23CCN(CCCN(c2ccccc2)c2ccccc2)CC3)cc1 | 156 to 158 |
